ChEMBL document CHEMBL3580659, “One-pot multicomponent synthesis of indole incorporated thiazolylcoumarins and their antibacterial, anticancer and DNA cleavage studies” (2015)

Key:
Assay type in all cases: functional
A498 [1] = assay: Cytotoxicity against human A498 cells assessed as cell growth level at 100 uM after 48 hrs by sulforhodamine B assay
MDA-MB-231 = assay: Cytotoxicity against human MDA-MB-231/ATCC cells after 48 hrs by sulforhodamine B assay; conditions: MDA-MB-231, 48 h
SF-539 [2] = assay: Cytotoxicity against human SF539 cells assessed as cell growth level at 100 uM after 48 hrs by sulforhodamine B assay
SR [3] = assay: Cytotoxicity against human SR cells assessed as cell growth level at 1 uM after 48 hrs by sulforhodamine B assay
COLO 205 = assay: Cytotoxicity against human COLO205 cells assessed as cell growth level at 10 nM after 48 hrs by sulforhodamine B assay
A498 [4] = assay: Cytotoxicity against human A498 cells assessed as cell growth level at 1 uM after 48 hrs by sulforhodamine B assay
MDA-MB-468 = assay: Cytotoxicity against human MDA-MB-468 cells assessed as cell growth level at 100 nM after 48 hrs by sulforhodamine B assay
HCT-15 = assay: Cytotoxicity against human HCT15 cells assessed as cell growth level at 1 uM after 48 hrs by sulforhodamine B assay
A498 [5] = assay: Cytotoxicity against human A498 cells assessed as cell growth level at 10 uM after 48 hrs by sulforhodamine B assay
SN12C [6] = assay: Cytotoxicity against human SN12C cells assessed as cell growth level at 100 uM after 48 hrs by sulforhodamine B assay
ACHN [7] = assay: Cytotoxicity against human ACHN cells assessed as cell growth level at 10 nM after 48 hrs by sulforhodamine B assay
T47D = assay: Cytotoxicity against human T47D cells after 48 hrs by sulforhodamine B assay
UO-31 = assay: Cytotoxicity against human UO31 cells after 48 hrs by sulforhodamine B assay; conditions: UO-31, 48 h
BT-549 = assay: Cytotoxicity against human BT549 cells assessed as cell growth level at 10 uM after 48 hrs by sulforhodamine B assay
U-251 = assay: Cytotoxicity against human U251 cells assessed as cell growth level at 10 nM after 48 hrs by sulforhodamine B assay
KM12 = assay: Cytotoxicity against human KM12 cells after 48 hrs by sulforhodamine B assay; conditions: KM12, 48 h
PC-3 [8] = assay: Cytotoxicity against human PC3 cells assessed as cell growth level at 10 nM after 48 hrs by sulforhodamine B assay
ACHN [9] = assay: Cytotoxicity against human ACHN cells assessed as cell growth level at 10 uM after 48 hrs by sulforhodamine B assay
SN12C [10] = assay: Cytotoxicity against human SN12C cells assessed as cell growth level at 10 nM after 48 hrs by sulforhodamine B assay
MOLT-4 = assay: Cytotoxicity against human MOLT4 cells after 48 hrs by sulforhodamine B assay; conditions: MOLT-4, 48 h
CCRF-CEM [11] = assay: Cytotoxicity against human CCRF-CEM cells assessed as cell growth level at 10 nM after 48 hrs by sulforhodamine B assay
SK-MEL-5 = assay: Cytotoxicity against human SK-MEL-5 cells assessed as cell growth level at 10 nM after 48 hrs by sulforhodamine B assay
NCI-H226 = assay: Cytotoxicity against human NCI-H226 cells after 48 hrs by sulforhodamine B assay; conditions: NCI-H226, 48 h
SR [12] = assay: Cytotoxicity against human SR cells assessed as cell growth level at 100 uM after 48 hrs by sulforhodamine B assay
OVCAR-5 = assay: Cytotoxicity against human OVCAR5 cells after 48 hrs by sulforhodamine B assay; conditions: OVCAR-5, 48 h
CCRF-CEM [13] = assay: Cytotoxicity against human CCRF-CEM cells after 48 hrs by sulforhodamine B assay
SF-539 [14] = assay: Cytotoxicity against human SF539 cells assessed as cell growth level at 10 uM after 48 hrs by sulforhodamine B assay
Malme-3M = assay: Cytotoxicity against human MALME-3M cells assessed as cell growth level at 1 uM after 48 hrs by sulforhodamine B assay
HOP-92 = assay: Cytotoxicity against human HOP92 cells assessed as cell growth level at 1 uM after 48 hrs by sulforhodamine B assay
SK-MEL-2 = assay: Cytotoxicity against human SK-MEL-2 cells assessed as cell growth level at 100 nM after 48 hrs by sulforhodamine B assay
SR [15] = assay: Cytotoxicity against human SR cells assessed as cell growth level at 10 uM after 48 hrs by sulforhodamine B assay
RPMI-8226 = assay: Cytotoxicity against human RPMI8226 cells assessed as cell growth level at 100 nM after 48 hrs by sulforhodamine B assay
MDA-MB-435 = assay: Cytotoxicity against human MDA-MB-435 cells assessed as cell growth level at 100 uM after 48 hrs by sulforhodamine B assay
NCI-H322M = assay: Cytotoxicity against human NCI-H322M cells assessed as cell growth level at 1 uM after 48 hrs by sulforhodamine B assay
PC-3 [16] = assay: Cytotoxicity against human PC3 cells assessed as cell growth level at 1 uM after 48 hrs by sulforhodamine B assay
OVCAR-4 = assay: Cytotoxicity against human OVCAR4 cells assessed as cell growth level at 100 uM after 48 hrs by sulforhodamine B assay
M14 = assay: Cytotoxicity against human M14 cells assessed as cell growth level at 10 nM after 48 hrs by sulforhodamine B assay
[17] = read-out: LC50 (the source's name)
[18] = read-out: pLC50 (the source's name) (converted)

Molecule `O=c1oc2ccccc2cc1-c1csc(N/N=C/c2c[nH]c3ccccc23)n1` has an Activity (A498 [1]) of -53%, a GI50 (MDA-MB-231; read-out: GI50) of 1.39 µM and a CC50 (MDA-MB-231; [17]) of 7.94 µM. The TGI (MDA-MB-231; read-out: TGI) was 3.33 µM, the GI50 (MDA-MB-231; read-out: pGI50 (converted)) was 1.38 µM and the CC50 (MDA-MB-231; [18]) was 7.94 µM. It also gave a TGI (MDA-MB-231; read-out: pTGI (converted)) of 3.31 µM, an Activity (SF-539 [2]) of -4% and an Activity (SR [3]) of 81%. It also gave an Activity (COLO 205) of 110%, an Activity (A498 [4]) of 61% and an Activity (MDA-MB-468) of 83%. For the same molecule, the Activity (HCT-15) was 84%, the Activity (A498 [5]) was 6.72% and the Activity (SN12C [6]) was -51%. The Activity (ACHN [7]) was 99%, the GI50 (T47D; read-out: GI50) was 1.98 µM and the CC50 (T47D; [17]) was over 100 µM. The TGI (T47D; read-out: TGI) was 5.9 µM, the GI50 (T47D; read-out: pGI50 (converted)) was 2 µM and the CC50 (T47D; [18]) was over 100 µM. For the same molecule, the TGI (T47D; read-out: pTGI (converted)) was 5.89 µM, the GI50 (UO-31; read-out: GI50) was 0.76 µM and the CC50 (UO-31; [17]) was 5.47 µM. The TGI (UO-31; read-out: TGI) was 2.23 µM, the GI50 (UO-31; read-out: pGI50 (converted)) was 0.759 µM and the CC50 (UO-31; [18]) was 5.5 µM. For the same molecule, the TGI (UO-31; read-out: pTGI (converted)) was 2.24 µM, the Activity (BT-549) was -12.14% and the Activity (U-251) was 100%. For the same molecule, the GI50 (KM12; read-out: GI50) was 1.86 µM, the CC50 (KM12; [17]) was 9.22 µM and the TGI (KM12; read-out: TGI) was 4.14 µM. For the same molecule, the GI50 (KM12; read-out: pGI50 (converted)) was 1.86 µM, the CC50 (KM12; [18]) was 9.12 µM and the TGI (KM12; read-out: pTGI (converted)) was 4.17 µM. It also gave an Activity (PC-3 [8]) of 105%, an Activity (ACHN [9]) of 10.07% and an Activity (SN12C [10]) of 88%. For the same molecule, the GI50 (MOLT-4; read-out: GI50) was 0.4 µM, the LC50 (MOLT-4; read-out: LC50) was over 100 µM and the TGI (MOLT-4; read-out: TGI) was 3.27 µM. For the same molecule, the GI50 (MOLT-4; read-out: pGI50 (converted)) was 0.407 µM, the LC50 (MOLT-4; read-out: pLC50 (converted)) was over 100 µM and the TGI (MOLT-4; read-out: pTGI (converted)) was 3.24 µM. The Activity (CCRF-CEM [11]) was 100%, the Activity (SK-MEL-5) was 96% and the GI50 (NCI-H226; read-out: GI50) was 2.38 µM. The CC50 (NCI-H226; [17]) was over 100 µM, the TGI (NCI-H226; read-out: TGI) was 7.7 µM and the GI50 (NCI-H226; read-out: pGI50 (converted)) was 2.4 µM. The CC50 (NCI-H226; [18]) was over 100 µM, the TGI (NCI-H226; read-out: pTGI (converted)) was 7.76 µM and the Activity (SR [12]) was -46%. The GI50 (OVCAR-5; read-out: GI50) was 2.34 µM, the CC50 (OVCAR-5; [17]) was over 100 µM and the TGI (OVCAR-5; read-out: TGI) was 7.8 µM. The GI50 (OVCAR-5; read-out: pGI50 (converted)) was 2.34 µM, the CC50 (OVCAR-5; [18]) was over 100 µM and the TGI (OVCAR-5; read-out: pTGI (converted)) was 7.76 µM. For the same molecule, the GI50 (CCRF-CEM [13]; read-out: GI50) was 0.33 µM, the LC50 (CCRF-CEM [13]; read-out: LC50) was over 100 µM and the TGI (CCRF-CEM [13]; read-out: TGI) was 1.78 µM. The GI50 (CCRF-CEM [13]; read-out: pGI50 (converted)) was 0.339 µM, the LC50 (CCRF-CEM [13]; read-out: pLC50 (converted)) was over 100 µM and the TGI (CCRF-CEM [13]; read-out: pTGI (converted)) was 1.78 µM. The Activity (SF-539 [14]) was 0.41%, the Activity (Malme-3M) was 93% and the Activity (HOP-92) was 87%. For the same molecule, the Activity (SK-MEL-2) was 95%, the Activity (SR [15]) was -0.54% and the Activity (RPMI-8226) was 94%. For the same molecule, the Activity (MDA-MB-435) was -69%, the Activity (NCI-H322M) was 92% and the Activity (PC-3 [16]) was 84%. The Activity (OVCAR-4) was -24% and the Activity (M14) was 97%.
